Laboratory results published in patent US20190040106A1, “USE OF HUMAN DERIVED IMMUNOSUPPRESSIVE PROTEINS AND PEPTIDES AS MEDICAMENTS” (AIMVION A/S, priority 2015, published 2019).
Bridge positions count the residues as written; N and C are the ends. Ends that are not written are not given here. Peptide text beside a SMILES is read from it. I, II: the chains in the order shown.

Columns and labels:
[1] = test system: murine model of collagen-induced arthritis; experiment: Collagen-induced arthritis model (CIA model), Example 9; assay type: in vivo, female DBA/1J mice; set-up: key to terminal individual paw score, Front right, group mean / terminal individual paw score, Front left, group mean / terminal individual paw score, Rear right, group mean / terminal individual paw score, Rear left, group mean: paw score 0 = no arthritis to 4 = severe arthritis of entire paw; key to Arthritic Index (AI), group mean: sum of four paw scores, each 0 (no arthritis) to 4 (severe); max 16; conditions: for Arthritic Index (AI), group mean: peptide 4 μg/mouse, methotrexate 3 mg/kg, subcutaneous
Description: The CIA model is the “standard” animal model for evaluation of anti-arthritic activity based on immunization with bovine collagen to develop antibodies against bone and cartilage.
(§1) The aim was to determine anti-arthritic dosing paradigm in a murine model of collagen-induced arthritis. This study was carried out in female DBA/1J mice. The effect of the Env59 ISU peptides on disease development is compared with a methotrexate MTX (positive control) or saline treated control group.
Day 0: The mice were weighted and injected subcutaneously at the nape of the neck as in the table below (table 3):
(§2) An hour later, the mice were injected subcutaneously at the base of the tail with 50 μl of the collagen/CFA emulsion.
(§3) Mice were scored for signs of arthritis every Monday, Wednesday, and Friday during the next 41 days as follows: • Each paw receives a score • 0=no visible effects of arthritis • 1=edema and/or erythema of 1 digit • 2=edema and/or erythema of 2 digits • 3=edema and/or erythema of more than 2 digits • 4=severe arthritis of entire paw and digits
(§4) The Arthritic Index (AI) was calculated by the addition of individual paw scores.
(§5) Day 42 The mice were weighted and scored for signs of arthritis.

[2] = test system: murine model of collagen-induced arthritis; experiment: Collagen-induced arthritis model (CIA model), study number 2, Example 12; assay type: in vivo, female DBA/1J mice; set-up: key to Terminal Individual Paw Score, Front right, group mean / Terminal Individual Paw Score, Front left, group mean / Terminal Individual Paw Score, Rear right, group mean / Terminal Individual Paw Score, Rear left, group mean: 0 = no arthritis, 4 = severe arthritis of entire paw; key to Arthritic Index (AI), group mean: sum of four paw scores, each 0 = none to 4 = severe; conditions: for Terminal Individual Paw Score, Front left, group mean / Terminal Individual Paw Score, Front right, group mean / Terminal Individual Paw Score, Rear left, group mean / Terminal Individual Paw Score, Rear right, group mean: day 42; for Arthritic Index (AI), group mean: peptides 4 μg/mouse, methotrexate 1 mg/kg, subcutaneous; for effect on diseased mouse weight / incidence of disease / reduction in disease severity: once daily subcutaneous 4 μg/mouse; for incidence of disease: starting one hour prior to disease induction; for reduction in disease severity: at the termination of the study
Description: The CIA model as described in an Example 9 is the “standard” animal model for evaluation of anti-arthritic activity based on immunization with bovine collagen to develop antibodies against bone and cartilage.
as §1, with “Here we present data on investigating in vivo effect of the HERV-Env59, SG#2, and SG#5 and SG#15 peptides. The aim” for “The aim”, “Env59 ISU peptide, SG#2, SG#5 or SG#15 peptide on disease” for “Env59 ISU peptides on disease”
Day 0: The mice were weighted and injected subcutaneously at the nape of the neck as in the table below (table 6):
as §2, §3, §4, §5

THP-1 or HT-1080 cells = experiment: CellTiter-Blue Cell Viability Assay, toxicity profile of peptides; conditions: about 20 h exposure
Excerpt: Here, we examined the cytotoxicity effect of peptides SG#1 to SG#17 (ID1031 to ID1047) on two human cell lines THP-1 or HT-1080 cells.
The CellTiter-Blue® Cell Viability Assay provides a homogenous, fluorometric method for estimating the number of viable cells present in multiwall plates. It uses the indicator dye resazurin to measure the metabolic capacity of cells—an indicator of cell viability. Viable cells retain the ability to reduce resazurin into resorufin, which is highly fluorescent.
The CellTiter-Blue® Reagent is a buffered solution containing highly purified resazurin. Resazurin is dark blue in color and has little intrinsic fluorescence. However, when it is reduced to resorufin, it becomes pink and highly fluorescent (579EX/584EM).
• 1. Set up 96-well assay plates containing cells in culture medium. For HT-1080, plate 1.6×10^4 cells per well on the Day 1 of the experiment. Cells are plated in 100 μl complete culture medium (DMEM) per well. • 2. On day 2, gently remove medium and add 50 μl of complete DMEM medium, add peptides and vehicle controls to appropriate wells so the final volume is 100 μl in each well. Supplement with complete DMEM where necessary. • 3. Culture cells for the desired test exposure period, about 20 h. • 4. On day 3, remove assay plates from 37° C. incubator and add 20 μl/well of CellTiter-Blue® Reagent. • 5. Shake for 10 seconds. • 6. Incubate using standard cell culture conditions for 4 hours. • 7. Shake plate for 10 seconds and record fluorescence at 560/590 nm
Toxicity profile for peptides SG#1 to SG#17 (ID1031 to ID1047). All peptides were tested at the dosage increment (10 nm, 30 nM, 100 nM, 1 μM, 10 μM, 30 μM, 100 μM and 300 μM).

## CN(Cc1cnc2nc(N)nc(N)c2n1)c1ccc(C(=O)N[C@@H](CCC(=O)O)C(=O)O)cc1 [Methotrexate, reference compound]
[1]; day 42
  terminal individual paw score, Front left, group mean: 0
  terminal individual paw score, Front right, group mean: 0
  terminal individual paw score, Rear left, group mean: 0
  terminal individual paw score, Rear right, group mean: 0
[1]; study day 21
  Arthritic Index (AI), group mean: 0
[1]; study day 22
  Arthritic Index (AI), group mean: 0
[1]; study day 25
  Arthritic Index (AI), group mean: 0
[1]; study day 27
  Arthritic Index (AI), group mean: 0
[1]; study day 29
  Arthritic Index (AI), group mean: 0
[1]; study day 32
  Arthritic Index (AI), group mean: 0
[1]; study day 34
  Arthritic Index (AI), group mean: 0
[1]; study day 36
  Arthritic Index (AI), group mean: 0
[1]; study day 38
  Arthritic Index (AI), group mean: 0
[1]; study day 41
  Arthritic Index (AI), group mean: 0
[1]; study day 42
  Arthritic Index (AI), group mean: 0
[2]
  Terminal Individual Paw Score, Front left, group mean: 0
  Terminal Individual Paw Score, Front right, group mean: 0
  Terminal Individual Paw Score, Rear left, group mean: 0
  Terminal Individual Paw Score, Rear right, group mean: 0
[2]; study day 14
  Arthritic Index (AI), group mean: 0
[2]; study day 21
  Arthritic Index (AI), group mean: 0
[2]; study day 25
  Arthritic Index (AI), group mean: 0
[2]; study day 27
  Arthritic Index (AI), group mean: 0
[2]; study day 29
  Arthritic Index (AI), group mean: 0
[2]; study day 32
  Arthritic Index (AI), group mean: 0
[2]; study day 34
  Arthritic Index (AI), group mean: 0
[2]; study day 36
  Arthritic Index (AI), group mean: 0
[2]; study day 39
  Arthritic Index (AI), group mean: 0
[2]; study day 41
  Arthritic Index (AI), group mean: 0
[2]; study day 42
  Arthritic Index (AI), group mean: 0

## CC[C@H](C)[C@H](NC(=O)[C@H](CO)NC(=O)[C@H](CC(C)C)NC(=O)CNC(=O)[C@H](CCCCNC(=O)[C@H](CC(C)C)NC(=O)CNC(=O)[C@H](CCCNC(=N)N)NC(=O)[C@H](CCCNC(=N)N)NC(=O)[C@H](CC(N)=O)NC(=O)[C@H](CCC(N)=O)NC(=O)[C@@H](N)CC(C)C)NC(=O)[C@H](CC(C)C)NC(=O)CNC(=O)[C@H](CCCNC(=N)N)NC(=O)[C@H](CCCNC(=N)N)NC(=O)[C@H](CC(N)=O)NC(=O)[C@H](CCC(N)=O)NC(=O)[C@@H](N)CC(C)C)C(=O)N[C@@H](CC(C)C)C(=O)N[C@@H](CC(C)C)C(=O)N[C@@H](CC(N)=O)C(=O)N[C@@H](CCC(=O)O)C(=O)N[C@@H](CCC(=O)O)C(=O)O [SG#16] (I: H-LQNRRGLKGLSILLNEE-OH / II: H-LQNRRGL; amide I:8-II:C)
THP-1 or HT-1080 cells
  Toxicity yes/no at the 300 μM conc.: No

## GLSILLNEECGPGPGP (Possibly HERV) [SG#5]
THP-1 or HT-1080 cells
  Toxicity yes/no at the 300 μM conc.: No
[2]
  Terminal Individual Paw Score, Front left, group mean: 1.3
  Terminal Individual Paw Score, Front right, group mean: 1.1
  Terminal Individual Paw Score, Rear left, group mean: 0.3
  Terminal Individual Paw Score, Rear right, group mean: 1.0
  effect on diseased mouse weight: no effect
  incidence of disease: 80%
  reduction in disease severity: 70%
[2]; study day 14
  Arthritic Index (AI), group mean: 0
[2]; study day 21
  Arthritic Index (AI), group mean: 0
[2]; study day 25
  Arthritic Index (AI), group mean: 0
[2]; study day 27
  Arthritic Index (AI), group mean: 0.0
[2]; study day 29
  Arthritic Index (AI), group mean: 0.9
[2]; study day 32
  Arthritic Index (AI), group mean: 1.1
[2]; study day 34
  Arthritic Index (AI), group mean: 1.3
[2]; study day 36
  Arthritic Index (AI), group mean: 2.1
[2]; study day 39
  Arthritic Index (AI), group mean: 3.3
[2]; study day 41
  Arthritic Index (AI), group mean: 3.5
[2]; study day 42
  Arthritic Index (AI), group mean: 3.6

## LNRKAIGLSILLNEECGPGPGP (Possibly HERV) [SG#6]
THP-1 or HT-1080 cells
  Toxicity yes/no at the 300 μM conc.: No

## LQNKKGLGLSILLNEECGPGPGP (Possibly HERV) [SG#9]
THP-1 or HT-1080 cells
  Toxicity yes/no at the 300 μM conc.: No

## LQNKRGLGLSILLNEECGPGPGP (Possibly HERV) [SG#8]
THP-1 or HT-1080 cells
  Toxicity yes/no at the 300 μM conc.: No

## LQNRRGLDLSILLNEECGPGPGP (Possibly HERV) [SG#3]
THP-1 or HT-1080 cells
  Toxicity yes/no at the 300 μM conc.: No

## LQNRRGLGLSILLNC (Possibly HERV) [SG#4]
THP-1 or HT-1080 cells
  Toxicity yes/no at the 300 μM conc.: No

## LQNRRGLGLSILLNEE [SG#13]
THP-1 or HT-1080 cells
  Toxicity yes/no at the 300 μM conc.: No

## LQNRRGLGLSILLNEECEEGPGPGP (Possibly HERV) [SG#2]
THP-1 or HT-1080 cells
  Toxicity yes/no at the 300 μM conc.: No
[2]
  Terminal Individual Paw Score, Front left, group mean: 0.4
  Terminal Individual Paw Score, Front right, group mean: 0.4
  Terminal Individual Paw Score, Rear left, group mean: 0.1
  Terminal Individual Paw Score, Rear right, group mean: 0.5
  effect on diseased mouse weight: no effect
  incidence of disease: 30%
  reduction in disease severity: 90%
[2]; study day 14
  Arthritic Index (AI), group mean: 0
[2]; study day 21
  Arthritic Index (AI), group mean: 0
[2]; study day 25
  Arthritic Index (AI), group mean: 0
[2]; study day 27
  Arthritic Index (AI), group mean: 0.4
[2]; study day 29
  Arthritic Index (AI), group mean: 0.4
[2]; study day 32
  Arthritic Index (AI), group mean: 0.9
[2]; study day 34
  Arthritic Index (AI), group mean: 0.9
[2]; study day 36
  Arthritic Index (AI), group mean: 0.9
[2]; study day 39
  Arthritic Index (AI), group mean: 0.9
[2]; study day 41
  Arthritic Index (AI), group mean: 1.0
[2]; study day 42
  Arthritic Index (AI), group mean: 1.4

## LQNRRGLGLSILLNEECGPGPGP [SG#10]
THP-1 or HT-1080 cells
  Toxicity yes/no at the 300 μM conc.: No

## LQNRRGLGLSILLNEECGPGPGP [SG#17] (Possibly HERV)
THP-1 or HT-1080 cells
  Toxicity yes/no at the 300 μM conc.: No

## LQNRRGLGLSILLNEECGPKK (Possibly HERV) [SG#11]
THP-1 or HT-1080 cells
  Toxicity yes/no at the 300 μM conc.: No

## LQNRRGLGLSILLNEECKKGPGPGP (Possibly HERV) [SG#1]
THP-1 or HT-1080 cells
  Toxicity yes/no at the 300 μM conc.: No

## LQNRRGLGLSILLNEELQNRRGL [SG#14]
THP-1 or HT-1080 cells
  Toxicity yes/no at the 300 μM conc.: No

## LQNRRGLGLSILLNEELQNRRGLC (Possibly HERV) [SG#12]
THP-1 or HT-1080 cells
  Toxicity yes/no at the 300 μM conc.: No

## LQNRRGLLQNRRGLGLSILLNEE (Possibly HERV) [SG#15]
THP-1 or HT-1080 cells
  Toxicity yes/no at the 300 μM conc.: No
[2]
  Terminal Individual Paw Score, Front left, group mean: 0.1
  Terminal Individual Paw Score, Front right, group mean: 0
  Terminal Individual Paw Score, Rear left, group mean: 0.3
  Terminal Individual Paw Score, Rear right, group mean: 0
  effect on diseased mouse weight: no effect
  incidence of disease: 30%
  reduction in disease severity: 97%
[2]; study day 14
  Arthritic Index (AI), group mean: 0
[2]; study day 21
  Arthritic Index (AI), group mean: 0
[2]; study day 25
  Arthritic Index (AI), group mean: 0
[2]; study day 27
  Arthritic Index (AI), group mean: 0.1
[2]; study day 29
  Arthritic Index (AI), group mean: 0.1
[2]; study day 32
  Arthritic Index (AI), group mean: 0.1
[2]; study day 34
  Arthritic Index (AI), group mean: 0.3
[2]; study day 36
  Arthritic Index (AI), group mean: 0.3
[2]; study day 39
  Arthritic Index (AI), group mean: 0.3
[2]; study day 41
  Arthritic Index (AI), group mean: 0.3
[2]; study day 42
  Arthritic Index (AI), group mean: 0.4
